Results on 24 molecules are retold here after patent publication EP1129187B1, “NEW FAMILY OF MAMMALIAN POTASSIUM CHANNELS, THEIR CLONING AND THEIR USE, ESPECIALLY FOR THE SCREENING OF DRUGS” (CENTRE NATIONAL DE LA RECHERCHE SCIENTIFIQUE (CNRS), priority 1998, dated 2000).

For experiment [1], the target named is T1, human TASK-2 K+ channel, SEQ ID NO: 28 (Homo sapiens, UniProt O95279).
T1 construct: expressed in transfected cells; host or cells: COS cells transiently transfected with pIREScd8-TASK-2 (DEAE-dextran)
T1 sequence (O95279 1-499): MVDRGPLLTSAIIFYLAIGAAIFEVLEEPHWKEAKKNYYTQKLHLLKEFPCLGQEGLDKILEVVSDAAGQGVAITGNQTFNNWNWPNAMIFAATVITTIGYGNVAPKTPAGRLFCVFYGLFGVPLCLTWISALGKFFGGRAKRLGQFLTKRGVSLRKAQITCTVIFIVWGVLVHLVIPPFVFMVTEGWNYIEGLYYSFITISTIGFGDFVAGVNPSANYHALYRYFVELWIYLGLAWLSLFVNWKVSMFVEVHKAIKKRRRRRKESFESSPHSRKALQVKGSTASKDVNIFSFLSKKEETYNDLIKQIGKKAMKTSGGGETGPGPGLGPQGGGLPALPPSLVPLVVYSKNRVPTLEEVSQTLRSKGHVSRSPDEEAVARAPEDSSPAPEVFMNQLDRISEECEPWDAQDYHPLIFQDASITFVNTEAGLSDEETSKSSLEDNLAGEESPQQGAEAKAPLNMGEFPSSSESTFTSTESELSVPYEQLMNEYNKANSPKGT
The experiment can be described thus: TASK-2 currents elicited by voltage pulses to +50 mV, whole cell recording in transfected COS cells. It counts as cell-based. As to the method:
For patch clamp analyses, a NotI/EcoRI fragment of 3.2 kb was excised from pBS-TASK 2 and subcloned into the pIRES-CD8 vectorto givepIREScdB-TASK-2. ThepIRES-CD8 vector was obtained by replacing the neo^R gene in the original vector pIRESneo (Clontech) by the coding sequence of the T type lymphocyte's surface marker CD8. COS cells were seeded at a density of 20,000 cells per 35 mm dishes 24 h prior to transfection. Cells were then transiently transfected by the classical DEAE-dextian method with 1 µg of prREScdB-TASK-2 plasmid per 35 mm dish. Transiently-transfected cells were visualized 48 h after transfection using the anti-CD8 antibody coated beads method (24). For whole cell recordings, the internal solution contained 150 mM KCI, 3 mM MgCl2, 5 mM EGTA, and 10 mM HEPES at pH 7.2 with KOH, and he external solution 150 mM NaCl, 5 mM KCI, 3 mM MgCl2 1 mM CaCl2, 10 mM HEPES at pH 7.4 with NaOH.
The effects of various pharmacological agents on currents elicited by voltage pulses to +50 mV have been studied in TASK-2-exprcssing. COS cells.

The target in experiment [2] is T2, human TWIK-1 K+ channel, SEQ ID NO: 2 (Homo sapiens, UniProt O00180).
T2 construct: expressed in transfected cells; host or cells: Xenopus laevis oocytes injected with cRNA transcribed from pEXO-TWIK-1
T2 sequence (O00180 1-336): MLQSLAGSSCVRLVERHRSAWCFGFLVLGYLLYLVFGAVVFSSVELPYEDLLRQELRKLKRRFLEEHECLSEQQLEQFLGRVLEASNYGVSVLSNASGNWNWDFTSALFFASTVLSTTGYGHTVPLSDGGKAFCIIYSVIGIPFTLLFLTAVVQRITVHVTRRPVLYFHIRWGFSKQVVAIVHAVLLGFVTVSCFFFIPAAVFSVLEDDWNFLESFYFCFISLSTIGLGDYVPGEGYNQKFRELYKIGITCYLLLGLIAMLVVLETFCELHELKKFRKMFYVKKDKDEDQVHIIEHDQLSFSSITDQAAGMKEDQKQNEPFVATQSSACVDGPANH
As to the kind of experiment: TWIK-1 K+ currents, two-electrode voltage clamp in Xenopus oocytes injected with TWIK-1 cRNA. It counts as cell-based. The method, then:
For the functional study, the coding sequence of TWIK-1 was inserted between the noncoding sequences 5' and 3' of Xenopus globin in the vector pEXO (Lingueglia, E. et al., 1993, J. Biol. Chem., 269, 13736-13739). A complementary RNA (cRNA) was transcribed of this construction and injected in the oocytes of X laevis. In a 0.3ml perfusion chamber, a single oocyte was impaled on two standard glass microelectrodes (0.5 - 2.0 MW) charged with 3 M KCI and maintained under voltage-clamp with a Dagan TEV200 amplifier. The bath solution contained 98 mM KCl,1.8 raM CaCl2 […] and 5 mM HEPES at pH 7.4 with KOH. Stimulation of the preparation, data acquisition and analyses were carried out with the pClamp program (Axon Instruments) USA3.
Intracellular acidification of the oocytes was produced using two methods: • superfusion with a solution enriched in CO2 which produces acidification by a mechanism involving the bicarbonate transport system (Guillemare, E. et al., 1995, Mol. Pharmacol., 47, 588-594); • treatment with dinitrophenol (DNP), which is a metabolic inhibitor that decouples the H+ gradient in mitochondria and induces internal acidity (Pedersen, P. L. and Carafoli, E., 1997, Trends Biol. Sci., 12, 146-189).
Phosphorylation or dephosphorylation of specific amino acid residues is an important mechanism of regulation of the ionic channels (Levitan, I. B., 1994, Annul Rev. Physiol., 56, 193-212).
Background: Two-electrode voltage clamp holds a large cell at a set potential and records current.

Experiment [3] concerns the target TWIK-1 (Tandem of P domains in a Weak Inward rectifying K+ channel) (human). As to the kind of experiment: cell-based or functional assay.
For experiment [4], the target named is human TASK1 K+ channel, SEQ ID NO: 4 (Homo sapiens, UniProt O14649). As to the kind of experiment: TASK1 currents elicited by voltage pulses to +50 mV, two-electrode voltage clamp in Xenopus oocytes. In kind it is cell-based. The conditions noted are these: for inhibition at 100 µM: read-out: TASK1 currents inhibited. As to the method: For functional studies, TASK1 cRNAs were injected into Xenopus oocytes. This was accomplished by subcloning a 2480 bp SmaI/XhoI fragment from pBS-hT ASK containing 14 bp of 5' UTR, the coding sequence and the entire 3' UTR into the pEXO vector (Lingueglia et al., 1993) to give pEXO-TASK1. Capped-cRNAs were synthesised in vitro from the linearized plasmid by using the T7 RNA polymerase (Stratagene). Xenopus laevis were purchased from CRBM (Montpellier, France). Preparation and cRNA injection of oocytes has been described elsewhere (Guillemare et al., 1992). Oocytes were used for electrophysiological studies 2 to 4 days following injection (20 ng/oocyte). In a 0.3 ml perfusion chamber, a single oocyte was impaled with two standard microelectrodes (1-2.5 Mn resistance) filled with 3 M KCI and maintained under voltage clamp by using a Dagan TEV 200 amplifier, in standard ND96 solution (96 mM NaC1. 2 mM KCI, 1.8 mM CaCI2, 2 mM MgCl2, 5 mM HEPES, pH 7.4 with NaOH). In some experiments, NaCl was substituted with TMA Cl (Tetra Methyl Ammonium Chloride). Stimulation of the preparation, data acquisition, and analysis were performed using pClamp software (Axon instruments, USA). Drugs were applied externally by addition to the superfusate (flow rate: 3 ml/min) or intracellularly injected by using a pressure microinjector (Inject+Matic, Switzedand). All experiments were performed at room temperature (21-22 °C).
human TASK1 K+ channel, SEQ ID NO: 4, sequence (O14649 whole entry, the tested form may be a part): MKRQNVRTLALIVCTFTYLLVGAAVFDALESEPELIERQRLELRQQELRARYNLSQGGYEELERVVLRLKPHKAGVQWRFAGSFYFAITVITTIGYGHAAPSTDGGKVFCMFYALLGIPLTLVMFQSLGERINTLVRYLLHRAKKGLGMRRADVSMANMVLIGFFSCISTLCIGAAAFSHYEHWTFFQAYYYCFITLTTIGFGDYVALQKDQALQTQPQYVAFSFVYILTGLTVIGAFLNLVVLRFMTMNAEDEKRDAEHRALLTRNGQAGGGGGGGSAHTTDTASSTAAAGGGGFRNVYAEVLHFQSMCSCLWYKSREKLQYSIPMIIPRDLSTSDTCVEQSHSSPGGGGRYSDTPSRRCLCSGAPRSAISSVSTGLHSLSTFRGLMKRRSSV
Figure 12A presents the I-V relationships of the current in K^+-rich solutions ranging from 2 mM to 98 mM. […] The theoretical I-V relationships in various [K^+]out calculated according to the Goldman-Hodgkin-Katz current equation are shown in Figure 12D. […] The effect of various pharmacological agents on currents elicited by voltage pulses to +50 mV has been studied in TASK1-expressing oocytes.

The mark [5] stands for this setting: COS, read-out: inhibition of the TASK-2 current.
Setting [6] is: read-out: inhibition of TWIK-1 currents.

The term IC50 denotes the point on the concentration scale where inhibition reaches its midpoint. Low readings indicate higher potency, high ones lower potency.

Where two headings read alike, the source gives them in different places.

charybdotoxine, sequence (P13487 23-59 limits assumed): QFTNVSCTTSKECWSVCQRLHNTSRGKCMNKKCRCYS

`CCN(CC)CC(=O)Nc1c(C)cccc1C` [lidocaine]: the inhibition at 1000 µM in experiment [1] (setting [5]) is 60.4 ± 1.5%. On to `CC1(C)Oc2ccc(C#N)cc2C(N2CCCC2=O)C1O` (stereo not drawn) [cromakaline], for which the “sensitivity of the TWIK-1 channel to K+ channel opener” value in experiment [2] (140 µM) is “not sensitive”.

In the case of `Nc1ncnc2c1nc(Cl)n2[C@@H]1O[C@@H]2COP(=O)(O)O[C@H]2[C@H]1O` [8-Cl-AMPc, 8-chloro cAMP], the “effect on the activity of TWIK-1” value in experiment [2] (300 µM, activation of protein kinase A) is recorded as “does not affect”. The “sensitivity of TASK-2 currents” value in experiment [1] (perfusion of 500 µM) is listed as “insensitive”. “charybdotoxine (from UniProt P13487 23-59) (peptide)” registered an inhibition of TWIK-1 K+ currents (two-electrode voltage clamp, Xenopus oocytes) in experiment [3] of under 10%. `CCCCC/C=C\C/C=C\C/C=C\C/C=C\CCCC(=O)O` [arachidonic acid]: the “sensitivity of TASK-2” value in experiment [1] (10 µM) was “not sensitive”. For the molecule `C=C[C@H]1C[N@@]2CC[C@H]1C[C@@H]2[C@@H](O)c1ccnc2ccc(OC)cc12` [quinidine], in experiment [4], the inhibition at 100 µM is under 20%. With `CC[N+](CC)(CC)CC` [TEA, tetraethylammonium], in experiment [2] (setting [6]), the inhibition at 20000 µM was 30%. In addition, in experiment [1] (1 mM), the “effect on TASK-2 currents” value was “inactive”. `CC(N/C(=N\C#N)Nc1ccncc1)C(C)(C)C` (stereo not drawn) [pinacidil]: the “sensitivity of the TWIK-1 channel to K+ channel opener” value in experiment [2] (100 µM) is listed as “not sensitive”.

With `C=C[C@H]1C[N@@]2CC[C@H]1C[C@H]2[C@H](O)c1ccnc2ccc(OC)cc12` [quinine], the inhibition at 100 µM was under 20% in experiment [4] and 65 ± 3.8% in experiment [1] (setting [5]). This molecule gave a half-inhibitory concentration (IC50) in experiment [1] of 22.4 ± 1.8 µM. For the molecule `O=C(O)CN(CCOCCOCCN(CC(=O)O)CC(=O)O)CC(=O)O` [EGTA], in experiment [4] (injection of 100 mM, internal Ca2+ change), the “sensitivity of TASK1 currents” value was “insensitive”. With `CCCCCCCCCC(=O)O[C@@H]1[C@@H](C)[C@@]2(O)[C@@H](C=C(CO)C[C@@]3(O)C(=O)C(C)=C[C@@H]23)[C@@H]2C(C)(C)[C@]12OC(=O)CCCCCCCCC` [PDA, 4α-phorbol-12, 13 didecanoate], the “effect on TWIK-1 currents” value in experiment [2] is “no effect”. With `Nc1ccncc1` [4-aminopyridine], the inhibition at 1000 µM in experiment [2] (at 1 mM, read-out: inhibition of TWIK-1 currents) is under 10%. In experiment [1] (100 µM), the “effect on TASK-2 currents” value is “inactive”. Take `CCCCN1CCCCC1C(=O)Nc1c(C)cccc1C` (stereo not drawn) [bupivacaïne]: in experiment [1] (COS, 1 mM, n = 4, read-out: inhibition of the TASK-2 current), the inhibition at 1000 µM worked out at 80.9%. For `CCCCc1oc2ccccc2c1C(=O)c1cc(I)c(OCCN(CC)CC)c(I)c1` [amiodarone], in experiment [2] (setting [6]), the inhibition at 100 µM is under 10%. Regarding `COc1ccc(Cl)cc1C(=O)NCCc1ccc(S(=O)(=O)NC(=O)NC2CCCCC2)cc1` [glibenclamide], the inhibition at 30 µM in experiment [2] was under 10%.

On to `O=[N+]([O-])c1ccc(O)c([N+](=O)[O-])c1` [DNP, dinitrophenol], for which, in experiment [2] (DNP 1 mM, intracellular acidification, % of the control amplitude, read-out: reduction in the TWIK-1 currents), the inhibition at 1000 µM worked out at 80%. In turn, “apamin (from UniProt P01500 28-45) (peptide)” showed an inhibition of TWIK-1 K+ currents (two-electrode voltage clamp, Xenopus oocytes) in experiment [3] of under 10%.

For the molecule `CC(C)Cn1c(=O)n(C)c(=O)c2[nH]cnc21` [IBMX], in experiment [4] (IBMX 1 mM perfused together with forskolin 10 µM, activation of adenyl cyclase), the “sensitivity of TASK1 currents” value is “insensitive”. Besides, the “sensitivity of TASK-2 currents” value in experiment [1] (IBMX 1 mM in a cocktail with forskolin 10 µM, increasing intracellular cAMP) is “insensitive”. For `CCN(CC)CCCC(C)Nc1c2ccc(Cl)cc2nc2ccc(OC)cc12` (stereo not drawn) [quinacrine], the inhibition at 100 µM in experiment [4] was under 20%. For the molecule `CNc1ccc2oc(C[C@H]3O[C@@]4(CC[C@H]3C)O[C@H]([C@H](C)C(=O)c3ccc[nH]3)[C@H](C)C[C@H]4C)nc2c1C(=O)O` [A23187], in experiment [2], the “effect on the properties of the TWIK-1 channel” value is “without effect”.

`CCCCCCC[N+](CC)(CC)CCCCc1ccc(Cl)cc1` [clofilium]: the inhibition at 30 µM in experiment [2] was under 10%.

For `O=P(O)(O)O[C@@H]1[C@H](O)[C@H](O)[C@@H](OP(=O)(O)O)[C@H](OP(=O)(O)O)[C@H]1O` [inositol triphosphate], the “sensitivity of TASK1 currents” value in experiment [4] (injection of 1 mM, internal Ca2+ change) is “insensitive”. For `C1CCC2(C1)C1CN(CC3CC3)CC2CN(CC2CC2)C1` [tedisamil], in experiment [2] (at 100 µM, read-out: inhibition of TWIK-1 currents), the inhibition at 100 µM amounted to 30%. dedrotoxine (peptide) gave an inhibition of TWIK-1 K+ currents (two-electrode voltage clamp, Xenopus oocytes) in experiment [3] of under 10%.
